# Data published in patent publication US20060228313A1, “Method of cosmetic depigmentation care by applying at least one aurone” (Coletica, priority 2005, published 2006).
# Tests used:
# [1] = system: normal human melanocytes; assay: Cytotoxicity on normal human melanocytes, PNPP determination; assay type: cell-based; conditions: 24 hours
# Procedure: The cytotoxicity of the actives is studied on normal human melanocytes in a 24-well plate by a determination with PNPP(P-nitrophenyl phosphate), a substance which is converted into p-nitrophenol by the intracellular acid phosphatases of viable cells.
# The absorbance of p-nitrophenol at 405 nm is directly proportional to the number of viable cells.
# The actives are tested at 2 different concentrations (10^−4 M and 10^−5 M) and are added to the culture medium and are incubated at 37° C. for 24 hours. The determination with PNPP is carried out on a cell mat and the results are expressed as a percentage viability with respect to the negative control (non-treated wells).
# [2] = molecular target: T1, Human tyrosinase (Homo sapiens, UniProt P14679); assay: Inhibition of human tyrosinase in a monolayer after application of the actives on normal human melanocytes; assay type: cell-based; conditions: for Inhibition of human tyrosinase after application on normal human melanocytes, percentage inhibition: 24 hours; for Inhibition of human tyrosinase on normal human melanocytes, result in words: model of Example 15
# T1 construct: Normal human melanocytes (originating from abdominal plasty) are sown in a 24-well plate; endogenous in cells; host or cells: normal human melanocytes (abdominal plasty; donors of light, brown and black phototype)
# T1 sequence (P14679 19-529): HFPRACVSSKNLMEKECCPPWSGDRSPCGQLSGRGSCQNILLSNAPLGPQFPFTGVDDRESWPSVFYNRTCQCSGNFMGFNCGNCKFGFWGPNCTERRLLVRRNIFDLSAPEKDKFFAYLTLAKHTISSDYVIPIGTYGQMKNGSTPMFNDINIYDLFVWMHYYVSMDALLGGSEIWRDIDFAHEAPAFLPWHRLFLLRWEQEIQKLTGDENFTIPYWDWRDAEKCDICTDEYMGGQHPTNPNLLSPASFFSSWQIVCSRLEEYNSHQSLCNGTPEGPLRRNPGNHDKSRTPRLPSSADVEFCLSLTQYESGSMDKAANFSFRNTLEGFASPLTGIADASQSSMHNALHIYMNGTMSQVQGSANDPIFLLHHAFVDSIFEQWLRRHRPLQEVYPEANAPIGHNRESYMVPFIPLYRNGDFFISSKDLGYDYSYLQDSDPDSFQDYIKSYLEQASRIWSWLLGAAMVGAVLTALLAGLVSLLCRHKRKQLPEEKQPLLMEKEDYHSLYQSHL
# Procedure: Normal human melanocytes (originating from abdominal plasty) are sown in a 24-well plate at the rate of 80,000 cells per well. They are cultivated up to confluence and the actives are applied for 24 hours in the culture media. After 24 hours, the media are removed and the melanocytes are picked up by mechanical action. An extraction is made by heat shock and the supernatants are then recovered and then incubated with MBTH (Sigma) and L-Dopa (Sigma). The OD at 490 nm is measured after 30 minutes, and the inhibition is of the tyrosinase is calculated by comparing the OD at 490 nm to the protein level (measured in each culture well) of the test with respect to the ratio: OD 490 nm/concentration of protein of the negative control (non-treated control). […]
# [3] = system: eye of rabbits; assay: Evaluation of the ocular irritation in the rabbit (OECD 405); assay type: in vivo; conditions: compound at 10% in a 0.5% xanthan gum, instilled pure, 0.1 ml
# Procedure: (§1) Toxicology tests were carried out on the compound obtained according to Example 9 incorporated at 10% in a 0.5% xanthan gum, by an ocular evaluation in the rabbit, by the study of the absence of abnormal toxicity by single oral administration in the rat and by the study of the sensitizing power in the guinea pig.
# The preparations described above were instilled pure and in one batch at the rate of 0.1 ml in the eye of three rabbits according to the method recommended by the directive of the OECD NO. 405 of Feb. 24, 1987, in relation to the study of “the acute irritant/corrosive effect on the eyes”.
# [4] = in vivo; conditions: both sexes, rat, po
# Procedure: as §1
# (§2) The preparations described were administered in one batch orally at the dose of 5 g/Kg of body weight, to 5 male rats and 5 female rats according to a protocol inspired from the Directive of the OECD No. 401 of Feb. 24, 1987 and adapted to cosmetic products. The LD0 and LD50 are found to be greater than 5,000 mg/Kg. The preparations tested are therefore not classed amongst the preparations which are dangerous by ingestion.
# [5] = system: rat; assay: in vivo; conditions: both, po
# Procedure: as §1, §2
# [6] = system: guinea pig; assay: Skin sensitisation potential in the guinea pig, Magnusson and Kligmann maximization test (OECD 406); assay type: in vivo; conditions: compound at 10% in a 0.5% xanthan gum
# Procedure: as §1
# The preparations described are subjected to the maximization test described by Magnusson and Kligmann, a protocol which is in agreement with the directive line No. 406 of the OECD.
# [7] = system: normal human melanocytes
# Text: A study is made with molecules known in the literature for their depigmenting activity. These molecules are applied to the model described in Example 15 so as to compare their efficiency with respect to the aurones is described above.
Compound,"Inhibition of human tyrosinase after application on normal human melanocytes, percentage inhibition ([2]; 10^−5M)",Percentages viability on normal human melanocytes ([1]; 10^−4 M),Percentages viability on normal human melanocytes ([1]; 10^−5 M),further results
"COc1cc(OC)c2c(c1)OCC2=O [Example 4, 4,6-Dimethoxybenzofuran-3(2H)-one]",–,106.77%,85.33%,–
"COc1cc(OC)c2c(c1)O/C(=C\c1ccccc1)C2=O [Example 5, (Z)-2-Benzylidene-4,6-dimethoxybenzofuran-3(2H)-one]",–,83.1%,98.55%,–
"COc1cc(OC)c2c(c1)O/C(=C\c1ccc(O)cc1)C2=O [Example 5a, (Z)-4,6-dimethoxy-2-(4′-hydroxybenzylidene)benzofuran-3(2H)-one]",–,104.53%,90.87%,–
"CCc1ccc(/C=C2\Oc3cc(OC)cc(OC)c3C2=O)cc1 [Example 5b, (Z)-4,6-dimethoxy-2-(4′-ethylbenzylidene)benzofuran-3(2H)-one]",–,–,99.62%,–
"COc1cc(OC)c2c(c1)O/C(=C\c1ccc(SC)cc1)C2=O [Example 5c, (Z)-4,6-dimethoxy-2-(4′-methylthiobenzylidene)benzofuran-3(2H)-one]",–,80.08%,136.13%,–
"COc1cc(OC)c2c(c1)O/C(=C\c1ccc(C#N)cc1)C2=O [Example 5d, (Z)-2-(4′-cyanobenzylidene)-4,6-dimethoxybenzofuran-3(2H)-one]",–,98.93%,96.51%,–
"COc1cc(O)c2c(c1)O/C(=C\c1ccccc1)C2=O [Example 6, (Z)-2-Benzylidene-4-hydroxy-6-methoxybenzofuran-3(2H)-one]",–,–,121.56%,–
"COc1ccc(/C=C2\Oc3cc(O)cc(O)c3C2=O)cc1 [Example 9, (Z)-4,6-Dihydroxy-2-(4-methoxybenzylidene)benzofuran-3(2H)-one]",–,–,–,"Ocular irritation [3]: non-irritant for the eyes; LD50 [4]: > 5000 mg/kg; LD0 [5]: greater than 5,000 mg/Kg; Skin sensitisation potential [6]: non-sensitizing by contact with the skin"
"O=C1/C(=C/c2ccc(O)cc2)Oc2cc(O)cc(O)c21 [Example 9b, (Z)-4,6-Dihydroxy-2-(4′-hydroxybenzylidene)benzofuran-3(2H)-one]",–,90.31%,128.39%,"Inhibition of human tyrosinase on normal human melanocytes, result in words [2]: particularly active; Inhibition of human tyrosinase on normal human melanocytes, result in words ([2]; listed as compound 9b): high efficiency"
"O=C1O[C@H]([C@@H](O)CO)C(O)=C1OP(=O)(O)O [VitC PMG, reference compound]",–,–,–,Inhibition (%) of tyrosinase ([2]; tested at 0.03%): 2.93%; Inhibition (%) of tyrosinase ([2]; tested at 0.3%): 1.55%; Inhibition (%) of tyrosinase ([2]; tested at 3%): −3.49%; cytotoxicity [7]: no

# Continued, in another order:
"Inhibition of human tyrosinase after application on normal human melanocytes, percentage inhibition ([2]; 10^−5M)",Compound,Percentages viability on normal human melanocytes ([1]; 10^−4 M),Percentages viability on normal human melanocytes ([1]; 10^−5 M),further results
9.69%,"4,6-Dihydroxybenzofuran-3(2H)-one (R1=OH) and 6-Hydroxybenzofuran-3(2H)-one (R1=H) [Example 2]",103.84%,126.09%,–
14.19%,COc1cc(O)c2c(c1)O/C(=C\c1ccc(SC)cc1)C2=O [Example 6c],–,116.24%,–
0%,COc1cc(O)c2c(c1)O/C(=C\c1ccc(C#N)cc1)C2=O [Example 6d],85.65%,119.36%,"Inhibition of human tyrosinase after application on normal human melanocytes, percentage inhibition ([2]; 10^−4M): 2.31%"
4.52%,CCc1ccc(/C=C2\Oc3cc(O)cc(O)c3C2=O)cc1 [Example 7b],63.52%,143.15%,–
0%,"Cc1cc(C)c(/C=C2\Oc3cc(O)cc(O)c3C2=O)[nH]1 [Example 7t, (Z)-4,6-Dihydroxy-2-[(3,5-dimethylpyrrole)methylene]benzofuran-3(2H)-one]",–,–,"Inhibition of human tyrosinase after application on normal human melanocytes, percentage inhibition ([2]; 10^−4M): 26.4%"
4.32%,O=C1/C(=C/c2ccccc2O)Oc2cc(O)cc(O)c21 [Example 9c],–,–,"Inhibition of human tyrosinase after application on normal human melanocytes, percentage inhibition ([2]; 10^−4M): 12.85%"
